From patent publication US9296709B2, “Manufacture of 2-(5-bromo-4-(4-cyclopropylnaphthalen-1-yl)-4H-1,2,4-triazol-3-ylthio)acetic acid” (ARDEA BIOSCIENCES, INC., priority 2012, dated 2016)
In brackets after ≈: the same amount, converted by molar mass.

What was measured:
[1] = Solubility in acetate buffer (25 mM, pH 5), assayed by HPLC; assay type: physicochemical; conditions: acetate buffer 25 mM pH 5, 25° C.; for solubility at 1 day: acetate buffer, 25 °C, pH 5, aqueous buffer, thermodynamic from solid
Description: (§1) Form 1 (˜25 mg) and acetate buffer (25 mM, pH 5, 4 mL), prepared with and without sodium chloride (ionic strength adjusted to =0.1M), were placed in a glass vial which was sealed and placed on a laboratory rotator in a 25° C. incubator. After 1, 5, and 7 days the samples were filtered and assayed by HPLC.
as §1, with “Form 2” for “Form 1”

[2] = Solid held in equilibrium with its saturated acetone solution at 60° C.; assay type: physicochemical; conditions: 60° C. for 6 days
[3] = Gravimetric vapor sorption (GVS) study; assay type: physicochemical
Description: FIG. 12 illustrates a GVS study of form 1 and form 2. […] This property of decreased hygroscopicity greatly aids in the preparation of solid pharmaceutical dosage forms.

[4] = Drug substance stability of packaged polymorph under accelerated / long term storage conditions; conditions: for degradation of packaged drug substance: double LDPE bag, heat sealed foil bag, HDPE container
Description: Form 2 of 2-(5-bromo-4-(4-cyclopropylnaphthalen-1-yl)-4H-1,2,4-triazol-3-ylthio)acetate was tested under various conditions to determine drug substance stability. […] Packaging was in a double low density polyethylene plastic bags inside a HDPE container.

| Structure (SMILES) | solubility at 1 day ([1]; Form 1, NaCl (I = 0.1), Day 1) [µg/mL] | outcome of equilibration with saturated acetone solution [2] | adsorbed at high humidity (GVS) [3] [% w/w] | stability in comparison to the amorphous solid state form of the carboxylic acid [4] | degradation of packaged drug substance ([4]; 6 months, accelerated conditions 40° C.-75% RH) | degradation of packaged drug substance ([4]; 12 months, long term conditions 25° C.-60% RH) | solubility ([1]; Form 2, NaCl (I = 0.1), Day5, sample pH 4.83) | solubility ([1]; Form 2, NaCl (I = 0.1), Day 7, sample pH 4.85) | solubility ([1]; Form 2, No NaCl, Day 1, sample pH 4.91) | solubility ([1]; Form 2, No NaCl, Day5, sample pH 4.73) | solubility ([1]; Form 2, No NaCl, Day 7, sample pH 4.79) | solubility at 1 day ([1]; Form 2, NaCl (I = 0.1), Day 1) [µg/mL] |
| --- | --- | --- | --- | --- | --- | --- | --- | --- | --- | --- | --- | --- |
| O=C(O)CSc1nnc(Br)n1-c1ccc(C2CC2)c2ccccc12 [Form 1, 2-(5-bromo-4-(4-cyclopropylnaphthalen-1-yl)-4H-1,2,4-triazol-3-ylthio)acetic acid] | 300 (≈ 741 µM) | decomposition | < 0.2 | – | – | – | – | – | – | – | – | – |
| O=C([O-])CSc1nnc(Br)n1-c1ccc(C2CC2)c2ccccc12.[Na+] [Form A, sodium 2-(5-bromo-4-(4-cyclopropylnaphthalen-1-yl)-4H-1,2,4-triazol-3-ylthio)acetate] | – | – | – | improvement over the solid state amorphous free acid | No degradation | no degradation | – | – | – | – | – | – |
| O=C(O)CSc1nnc(Br)n1-c1ccc(C2CC2)c2ccccc12 [Form 2, 2-(5-bromo-4-(4-cyclopropylnaphthalen-1-yl)-4H-1,2,4-triazol-3-ylthio)acetic acid] | – | – | < 0.1 | – | – | – | 0.2441 (pH 4.83) mg/mL | 0.2157 (pH 4.85) mg/mL | 0.1867 (pH 4.91) mg/mL | 0.1957 (pH 4.73) mg/mL | 0.1337 (pH 4.79) mg/mL | 219 (≈ 542 µM) |
